Measured values published in ChEMBL document CHEMBL1201862, “PubChem BioAssay data set” (2004).
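48-hour exposure; five concentrations; linearly interpolated endpoints. GI50 marks 50% less growth.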 The source made the active and inactive calls. No stated cut-off is given here; in the data, active = GI50 up to about 1.1 µM and inactive = higher.

Assays:
Experiment in all cases: growth of human tumour cells (NCI), 48 h
[1] = system: SF-268
[2] = system: MOLT-4
[3] = system: NCI/ADR-RES
[4] = system: NCI-H522
[5] = system: OVCAR-8
[6] = system: HT-29
[7] = system: 786-0
[8] = system: NCI-H226
[9] = system: UACC-62
[10] = system: SK-MEL-5
[11] = system: UACC-257
[12] = system: OVCAR-5
[13] = system: NCI-H23
[14] = system: K562
[15] = system: DU-145
[16] = system: A498
[17] = system: A549
[18] = system: MDA-MB-231
[19] = system: CCRF-CEM
[20] = system: RPMI-8226
[21] = system: SK-OV-3
[22] = system: SK-MEL-2
[23] = system: SF-295
[24] = system: OVCAR-4
[25] = system: HCT-116
[26] = system: PC-3
[27] = system: COLO 205
[28] = system: MDA-N
[29] = system: UO-31
[30] = system: RXF 393
[31] = system: HCT-15
[32] = system: MDA-MB-435
[33] = system: M14
[34] = system: LOX IMVI
[35] = system: TK-10
[36] = system: SW-620
[37] = system: HCC 2998
[38] = system: U-251
[39] = system: KM12
[40] = system: SF-539
[41] = system: SK-MEL-28
[42] = system: NCI-H460
[43] = system: SNB-19
[44] = system: SN12C
[45] = system: CAKI-1
[46] = system: MCF7
[47] = system: HOP-92
[48] = system: SR
[49] = system: ACHN
[50] = system: Hs-578T
[51] = system: HOP-62
[52] = system: EKVX
[53] = system: IGROV-1
[54] = system: HL-60
[55] = system: SNB-75
[56] = system: T47D
[57] = system: OVCAR-3

## CC1=CCC2CC1NC(=O)CCOCCC(=O)NC2(C)C (stereo not drawn)
[1]
  GI50: > 100 µM (inactive)
[2]
  GI50: > 100 µM (inactive)
[3]
  GI50: > 100 µM (inactive)
[4]
  GI50: > 100 µM (inactive)
[5]
  GI50: > 100 µM (inactive)
[6]
  GI50: > 100 µM (inactive)
[7]
  GI50: > 100 µM (inactive)
[8]
  GI50: > 100 µM (inactive)
[9]
  GI50: > 100 µM (inactive)
[10]
  GI50: > 100 µM (inactive)
[11]
  GI50: > 100 µM (inactive)
[12]
  GI50: > 100 µM (inactive)
[13]
  GI50: > 100 µM (inactive)
[14]
  GI50: > 100 µM (inactive)
[15]
  GI50: > 100 µM (inactive)
[16]
  GI50: > 100 µM (inactive)
[17]
  GI50: > 100 µM (inactive)
[18]
  GI50: > 100 µM (inactive)
[19]
  GI50: > 100 µM (inactive)
[20]
  GI50: > 100 µM (inactive)
[21]
  GI50: > 100 µM (inactive)
[22]
  GI50: > 100 µM (inactive)
[23]
  GI50: > 100 µM (inactive)
[24]
  GI50: > 100 µM (inactive)
[25]
  GI50: > 100 µM (inactive)
[26]
  GI50: > 100 µM (inactive)
[27]
  GI50: > 100 µM (inactive)
[28]
  GI50: > 100 µM (inactive)
[29]
  GI50: > 100 µM (inactive)
[30]
  GI50: > 100 µM (inactive)
[31]
  GI50: > 100 µM
[32]
  GI50: > 100 µM (inactive)
[33]
  GI50: > 100 µM (inactive)
[34]
  GI50: > 100 µM (inactive)
[35]
  GI50: > 100 µM (inactive)
[36]
  GI50: > 100 µM (inactive)
[37]
  GI50: > 100 µM (inactive)
[38]
  GI50: > 100 µM (inactive)
[39]
  GI50: > 100 µM (inactive)
[40]
  GI50: > 100 µM (inactive)
[41]
  GI50: > 100 µM (inactive)
[42]
  GI50: > 100 µM (inactive)
[43]
  GI50: > 100 µM (inactive)
[44]
  GI50: > 100 µM (inactive)
[45]
  GI50: > 100 µM (inactive)
[46]
  GI50: > 100 µM (inactive)
[47]
  GI50: > 100 µM (inactive)
[48]
  GI50: > 100 µM (inactive)
[49]
  GI50: > 100 µM (inactive)

## CCCCCCCCCCCCCCCCNc1ccn(C2CC(OP(=O)(O)OCC3OC(n4cc(CC)c(=O)[nH]c4=O)CC3O)C(CO)O2)c(=O)n1 (stereo not drawn)
[1]
  GI50: 15.3 µM (inactive)
[50]
  GI50: 22.1 µM (inactive)
[2]
  GI50: 20.3 µM (inactive)
[3]
  GI50: 27.9 µM (inactive)
[4]
  GI50: 36.4 µM (inactive)
[5]
  GI50: 20 µM (inactive)
[6]
  GI50: 21.6 µM (inactive)
[7]
  GI50: 83.2 µM (inactive)
[8]
  GI50: 47.2 µM (inactive)
[9]
  GI50: 18 µM (inactive)
[10]
  GI50: 2.29 µM (inactive)
[11]
  GI50: 30.3 µM (inactive)
[12]
  GI50: 23.9 µM (inactive)
[51]
  GI50: 23.4 µM (inactive)
[13]
  GI50: 34.6 µM (inactive)
[14]
  GI50: 20.4 µM (inactive)
[52]
  GI50: 43 µM (inactive)
[53]
  GI50: 41.5 µM (inactive)
[15]
  GI50: 31.8 µM (inactive)
[16]
  GI50: > 100 µM (inactive)
[17]
  GI50: 22 µM (inactive)
[18]
  GI50: 35.2 µM (inactive)
[20]
  GI50: 17.8 µM (inactive)
[21]
  GI50: 27.3 µM (inactive)
[22]
  GI50: 19.4 µM (inactive)
[23]
  GI50: 18.7 µM (inactive)
[54]
  GI50: 4.66 µM (inactive)
[24]
  GI50: > 100 µM (inactive)
[25]
  GI50: 50.1 µM (inactive)
[26]
  GI50: 18.5 µM (inactive)
[27]
  GI50: 26 µM (inactive)
[55]
  GI50: 23.3 µM (inactive)
[29]
  GI50: 19.2 µM (inactive)
[30]
  GI50: 13.7 µM (inactive)
[31]
  GI50: 28.1 µM
[56]
  GI50: 44.2 µM (inactive)
[32]
  GI50: 46.9 µM (inactive)
[33]
  GI50: 17.8 µM (inactive)
[34]
  GI50: 44.7 µM (inactive)
[35]
  GI50: 77.3 µM (inactive)
[36]
  GI50: 23.8 µM (inactive)
[37]
  GI50: 24.5 µM (inactive)
[38]
  GI50: 26.8 µM (inactive)
[39]
  GI50: 15.7 µM (inactive)
[40]
  GI50: 18.4 µM (inactive)
[41]
  GI50: 21.4 µM (inactive)
[57]
  GI50: 38.3 µM (inactive)
[43]
  GI50: 16 µM (inactive)
[44]
  GI50: 41.5 µM (inactive)
[45]
  GI50: 42.9 µM (inactive)
[46]
  GI50: 32.5 µM (inactive)
[47]
  GI50: 48.4 µM (inactive)
[48]
  GI50: 22.4 µM (inactive)
[49]
  GI50: 42.8 µM (inactive)
